# Laboratory results as given in patent publication US8575197B2, “Pyrolinone derivative and pharmaceutical composition comprising the same” (Shionogi & Co., Ltd., priority 2008, dated 2013).
# pIC50: −log10 of the molar value.
# Biological target: human P2X3 receptor (Homo sapiens (Human), UniProt P56373)
# Assay: P2X3 receptor inhibition, ATP-evoked Fluo-3 calcium fluorescence (FDSS 3000)
# Type: cell-based
# Details: C6BU-1 cell transfected with human P2X3 receptor gene; ATP-evoked Fluo-3 fluorescence
# Procedure, shortened: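 C6BU-1 cells stably transfected with human P2X3, loaded with 4 μM Fluo-3-AM for 1 h at 37 °C in HEPES buffer pH 7.5 with probenecid. Compound added 5 min before 40 nM ATP solution; fluorescence followed 3 min. IC50 from ratio of peak post-ATP to baseline fluorescence.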
# human P2X3 receptor, sequence (P56373 whole entry): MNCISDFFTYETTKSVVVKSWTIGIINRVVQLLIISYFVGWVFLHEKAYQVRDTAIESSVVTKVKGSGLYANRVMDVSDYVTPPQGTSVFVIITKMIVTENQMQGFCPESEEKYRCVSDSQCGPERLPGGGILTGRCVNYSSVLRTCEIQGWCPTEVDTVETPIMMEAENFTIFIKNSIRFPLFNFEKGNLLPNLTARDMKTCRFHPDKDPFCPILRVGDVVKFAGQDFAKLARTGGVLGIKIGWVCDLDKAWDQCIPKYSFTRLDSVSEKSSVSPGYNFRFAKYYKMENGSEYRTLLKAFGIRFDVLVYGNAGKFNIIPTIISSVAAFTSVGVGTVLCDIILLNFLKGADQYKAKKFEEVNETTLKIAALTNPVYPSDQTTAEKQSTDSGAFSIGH
row,Structure (SMILES),pIC50
1,CC(=O)N(C)c1ccccc1C1C(C(=O)C(C)C)=C(O)C(=O)N1c1ccc(-c2ccsc2)cc1 (stereo not drawn) [Compound I-212],7.04
2,COCCOc1ccccc1C1C(C(=O)CC(C)C)=C(O)C(=O)N1c1ccc(-c2cc(C)no2)cc1 (stereo not drawn) [Compound I-346],6.17
3,CCc1ccccc1C1C(C(=O)C(C)(C)C)=C(O)C(=O)N1c1ccc(-c2ccon2)cc1 (stereo not drawn) [Compound I-091],6.47
4,COc1ccccc1C1c2c(C(F)(F)F)n[nH]c2C(=O)N1c1ccc(-c2ccon2)cc1 (stereo not drawn) [II-148],6.51
5,COCc1ccccc1C1C(C(=O)C(C)C)=C(O)C(=O)N1c1ccc(C2CCCC2)cc1 (stereo not drawn) [Compound I-528],7.15
6,COc1ccccc1C1C(C(=O)C(C)(C)C)=C(O)C(=O)N1c1ccc(-c2ccoc2)cc1 (stereo not drawn) [Compound I-077],7.32
7,COc1ccccc1C1c2c(C(C)(C)C(=O)N(C)C)n[nH]c2C(=O)N1c1ccc(-c2ccsc2)cc1 (stereo not drawn) [II-172],7.96
8,COc1ccccc1C1c2c(CO)n[nH]c2C(=O)N1c1ccc(-c2ccsc2)cc1 (stereo not drawn) [II-182],7.22
9,COCCOc1ccccc1C1c2c(C(C)(C)C)n[nH]c2C(=O)N1c1ccc(-c2ccco2)cc1 (stereo not drawn) [II-027],8.10
10,COCCOc1ccccc1[C@@H]1C(C(=O)C(C)C)=C(O)C(=O)N1c1ccc(-c2ccsc2)cc1 [Compound I-222],8.22
11,COc1ccccc1C1c2c(C(C)(C)CO)n[nH]c2C(=O)N1c1ccc(-c2noc(C)n2)cc1 (stereo not drawn) [II-137],6.83
12,CC(C)C(=O)C1=C(O)C(=O)N(c2ccc(-c3ccsc3)cc2)C1c1ccccc1OC(F)F (stereo not drawn) [Compound I-301],7.74
13,COc1cc(F)ccc1C1c2c(C(C)(C)C)n[nH]c2C(=O)N1c1ccc(-c2ccon2)cc1 (stereo not drawn) [II-059],7.34
14,COc1ccc(S(=O)(=O)C2=C(O)C(=O)N(c3ccc(-c4noc(C)n4)cc3)C2C2CCCCC2)cc1 (stereo not drawn) [Compound I-560],6.56
15,COc1cc(F)ccc1C1C(C(=O)CC(C)C)=C(O)C(=O)N1c1ccc(-c2ccsc2)cc1 (stereo not drawn) [Compound I-326],7.57
16,COc1ccc(C(=O)C2=C(O)C(=O)N(c3nc4ccc(OC)cc4s3)C2c2ccccc2OCCO)cc1 (stereo not drawn) [Compound I-126],7.82
17,COc1ccccc1C1c2c(C(C)(C)CO)n[nH]c2C(=O)N1c1ccc(-c2cccs2)cn1 (stereo not drawn) [II-264],7.96
18,COc1ccccc1C1c2c(C(C)C)n[nH]c2CN1C(=O)Nc1ccc(-c2ccsc2)cc1 (stereo not drawn) [II-189],6.05
19,Cc1nc(-c2ccc(N3C(=O)C(O)=C(C(=O)C(C)C)C3c3ccccc3COC(C)C)cc2)no1 (stereo not drawn) [Compound I-539],7.21
20,COc1ccccc1C1c2c(C(C)(C)CO)n[nH]c2C(=O)N1c1ccc(-c2cc(C)no2)cc1 (stereo not drawn) [II-136],7.26
21,COCCOc1ccccc1C1C(C(=O)C(C)C)=C(O)C(=O)N1c1ccc(-c2noc(C)n2)cc1 (stereo not drawn) [Compound I-275],6.76
22,COCc1ccccc1C1C(C(=O)C(C)C)=C(O)C(=O)N1c1ccc(-c2csc(C)c2)cc1 (stereo not drawn) [Compound I-265],7.55
23,COCc1ccccc1C1c2c(C(C)(C)C)n[nH]c2C(=O)N1c1ccc(-c2cc(C)no2)cc1 (stereo not drawn) [II-068],6.29
24,COCc1ccccc1C1C(C(=O)CC(C)C)=C(O)C(=O)N1c1ccc(-c2cscn2)cc1 (stereo not drawn) [Compound I-422],6.44
25,CC(C)c1n[nH]c2c1C(c1ccccc1OCCS(C)(=O)=O)N(c1ccc(-c3ccsc3)cc1)C2=O (stereo not drawn) [II-245],8.22
26,Cc1cc(-c2ccc(N3C(=O)C(O)=C(C(=O)CC(C)C)C3c3ccccc3OC(F)F)cc2)on1 (stereo not drawn) [Compound I-341],6.29
27,CCCC(CCC)C1C(C(=O)c2ccc(CO)cc2)=C(O)C(=O)N1c1ccc(-c2ccon2)cc1 (stereo not drawn) [Compound I-006],7.57
28,COc1ccccc1C1c2c(C(C)(C)C)n[nH]c2C(=O)N1c1ccc(-c2cccs2)cc1 (stereo not drawn) [II-213],7.96
29,CC(C)C(=O)C1=C(O)C(=O)N(c2ccc(-c3ccsc3)cc2)C1c1ccccc1C(=O)N(C)C (stereo not drawn) [Compound I-245],7.33
30,CSc1ccc(N2C(=O)C(O)=C(C(=O)CC(C)C)C2c2ccccc2OC(C)C)cc1 (stereo not drawn) [Compound I-436],7.38
